Test system: NCI-60 cell lines
Assay type: cell-based, human

Substance	Cell Line with which the peptide (and its tripeptide motif) is associated	Cell Line (NCI-60 cell line the peptide and its motif are associated with)	other results
GLRTRQV	Hop-92-Lung		
LLRSSLG			Cell Line (NCI-60 cell line the peptide is associated with): HCT-116 Colon
RREGLRS	H522-Lung	OVCAR-3 Ovarian	
LFHTRSS		IGROV1 Ovarian	
AAYWGPS			Cell Line the peptide is associated with (peptide recovered from phage library selection on this NCI-60 cell line): A498 Renal
ATLDGVS		SK-OV-3-3 Ovarian	
FSLVSFV		SK-MEL-2 Melanoma	
HTYGVRF			Cell Line the peptide is associated with (peptide recovered from phage library selection on this NCI-60 cell line): TK-10 Renal
NVGGGRF			Cell Line the peptide is associated with (peptide recovered from phage library selection on this NCI-60 cell line): NCI/ADR-RES Breast
PIGAVMN		DU-145 Prostate	
SSLLSSL		SK-MEL-2 Melanoma	
RGGRSPS			Cell Line (NCI-60 cell line the peptide is associated with): HT-29 Colon
WISAVSK		SK-OV-3-3 Ovarian	
QTLSAGG			Cell Line (NCI-60 cell line the peptide is associated with): SF-295 CNS
LSERRGV			Cell Line (NCI-60 cell line the peptide is associated with): SF-295 CNS
DWGRSSF	A549-Lung		
MRPGLRS			Cell Line the peptide is associated with (peptide recovered from phage library selection on this NCI-60 cell line): MDA-MB-231 Breast
LSGRVIV			Cell Line the peptide is associated with (peptide recovered from phage library selection on this NCI-60 cell line): UO31 Renal
YLRSAGM		PC3 Prostate	
RALGLVS	CCRF-CEM Leukemia		
YGESLLR			Cell Line (NCI-60 cell line the peptide is associated with): SNB-75 CNS
GWGGGSA			Cell Line (NCI-60 cell line the peptide is associated with): MALME-3M Melanoma
WGATAGG	Hop-62-Lung		
QGYALRV	H23-Lung		
LRSSGAT	H322-Lung		
VVASLPH			Cell Line (NCI-60 cell line the peptide is associated with): HT-29 Colon
GSSRPSI			Cell Line (NCI-60 cell line the peptide is associated with): HCT-15 Colon

Substance	Cell Line with which the peptide (and its tripeptide motif) is associated	Cell Line (NCI-60 cell line the peptide and its motif are associated with)	other results
ANAASSP		SK-MEL-5 Melanoma	
AAVETGV			Cell Line (NCI-60 cell line the peptide is associated with): SF-268 CNS
VRAAGRV	Hop-62-Lung		
GRLWWHT	Hop-92-Lung		
LRVGIGY	H23-Lung		
SFGVLSG			Cell Line the peptide is associated with (peptide recovered from phage library selection on this NCI-60 cell line): HS 578 T Breast
YAGSGQL		OVCAR-8 Ovarian	
AVLVAGG	CCRF-CEM Leukemia		
RGGQRAS		M14 Melanoma	
VARGQMQ	H226-Lung		
HAGLLVV			Cell Line the peptide is associated with (peptide recovered from phage library selection on this NCI-60 cell line): TK-10 Renal
RGSAQNF	RPMI-8226-Leukemia		
SGAGSVS		OVCAR-5 Ovarian	
TSGAVAP			Cell Line the peptide is associated with (peptide recovered from phage library selection on this NCI-60 cell line): HS 578 T Breast
LLRRLSW		SK-MEL-2 Melanoma	
DVIARGW		UACC 257 Melanoma	
GSTLLSR			Cell Line (NCI-60 cell line the peptide is associated with): LOX-IMVI Melanoma
FGRLLSP		UACC62 Melanoma	
VGLRCSV			Cell Line the peptide is associated with (peptide recovered from phage library selection on this NCI-60 cell line): BT-549 Breast
RDLAGPS		OVCAR-4 Ovarian	
QMQGRAV	H226-Lung		
PRASSTG			Cell Line the peptide is associated with (peptide recovered from phage library selection on this NCI-60 cell line): SN12C Renal
RGSPAAA			Cell Line the peptide is associated with (peptide recovered from phage library selection on this NCI-60 cell line): MDA-MB-435-Breast
RVGAGAF		SK-OV-3-3 Ovarian	
SGSVNRG	RPMI-8226-Leukemia		
GLGRSVN			Cell Line the peptide is associated with (peptide recovered from phage library selection on this NCI-60 cell line): T-47D Breast
VGRLQTT		UACC62 Melanoma	

Substance	Cell Line with which the peptide (and its tripeptide motif) is associated	Cell Line (NCI-60 cell line the peptide and its motif are associated with)	other results
FTRGAAS		SK-MEL-2 Melanoma	
QGSSNSV		IGROV1 Ovarian	
HLRSGFS		DU-145 Prostate	
GRVTGGR			Cell Line (NCI-60 cell line the peptide is associated with): HCT-15 Colon
LGVRASP			Cell Line the peptide is associated with (peptide recovered from phage library selection on this NCI-60 cell line): BT-549 Breast
WRLAGLG			Cell Line the peptide is associated with (peptide recovered from phage library selection on this NCI-60 cell line): NCI/ADR-RES Breast
RVMRGSL			Cell Line the peptide is associated with (peptide recovered from phage library selection on this NCI-60 cell line): MCF-7 Breast
FIAGGVG			Cell Line the peptide is associated with (peptide recovered from phage library selection on this NCI-60 cell line): ACHN Renal
WSGVSRL			Cell Line (NCI-60 cell line the peptide is associated with): HCT-15 Colon
VFQRSSG	A549-Lung		
RVSGDGK		SK-OV-3-3 Ovarian	
EFAVAGR	SR Leukemia		
RHGPGVL		OVCAR-3 Ovarian	
SYMGAAS			Cell Line the peptide is associated with (peptide recovered from phage library selection on this NCI-60 cell line): SN12C Renal
GSSTLQW			Cell Line the peptide is associated with (peptide recovered from phage library selection on this NCI-60 cell line): TK-10 Renal
FFGGSRA	K-562-Leukemia		
RRFWAGL	H460-Lung		
NMGRGSL			Cell Line the peptide is associated with (peptide recovered from phage library selection on this NCI-60 cell line): ACHN Renal
AVGRGSG	Hop-92-Lung		
SNHTASL			Cell Line (NCI-60 cell line the peptide is associated with): SF-295 CNS
FVDIAGS	H23-Lung		
GLVGGSS	H460-Lung		
WSAGGPH	SR Leukemia		
FAGRVPS	RPMI-8226-Leukemia		
PVRGSVD	HL-60-Leukemia		
DRGLGMS		786-0 Renal	
